These are literature values, as cited in patent US20080207644A1, “Therapeutic materials and methods” (priority 2006, published 2008).

In one data set the test system is cancers. The conditions noted are these: for mouth sores as side effect: human studies; for results in human studies: single agents or combinations, treatment of a variety of cancers.
The conditions of data set [1]: oral doses of 10-100 mg/kg.
For data set [2] the following is noted: 30 mg/kg oral.
For data set [3], the system named is a variety of malignancies. The settings on record: intravenous 0.7 to 1.3 mg/m^2/dose biweekly.

In the case of `CO[C@H]1C[C@@H]2CC[C@@H](C)[C@@](O)(O2)C(=O)C(=O)N2CCCC[C@H]2C(=O)O[C@H]([C@H](C)C[C@@H]2CC[C@@H](OP(C)(C)=O)[C@H](OC)C2)CC(=O)[C@H](C)/C=C(\C)[C@@H](O)[C@@H](OC)C(=O)[C@H](C)C[C@H](C)/C=C/C=C/C=C/1C` [AP23573], in the data set on cancers, the “mouth sores as side effect” value was “dose limiting toxicity” and the “results in human studies” value is recorded as “positive results”.

Take `Cc1ccc2nc(NCCN)c3ncc(C)n3c2c1` [BMS-345541]: in data set [1], the “efficacy in mouse studies” value is “effective”.

On to `COc1cccc2nc(-c3cccs3)nc(NN3C(=O)CC(C)C3=O)c12` (stereo not drawn) [SPC-839], for which the “oral efficacy in a rat model” value in data set [2] was “oral efficacy”.

In the case of `CC(C)C[C@H](NC(=O)[C@H](Cc1ccccc1)NC(=O)c1cnccn1)B(O)O` [Velcade], the activity against malignancies result in data set [3] was “activities against a variety of malignancies”.

`CO[C@H]1C[C@@H]2CC[C@@H](C)[C@@](O)(O2)C(=O)C(=O)N2CCCC[C@H]2C(=O)O[C@H]([C@H](C)C[C@@H]2CC[C@@H](OCCO)[C@H](OC)C2)CC(=O)[C@H](C)/C=C(\C)[C@@H](O)[C@@H](OC)C(=O)[C@H](C)C[C@H](C)/C=C/C=C/C=C/1C` [everolimus]: in the data set with cancers, the “mouth sores as side effect” value was “dose limiting toxicity” and the “results in human studies” value was “positive results”.

For `CO[C@H]1C[C@@H]2CC[C@@H](C)[C@@](O)(O2)C(=O)C(=O)N2CCCC[C@H]2C(=O)O[C@H]([C@H](C)C[C@@H]2CC[C@@H](OC(=O)C(C)(CO)CO)[C@H](OC)C2)CC(=O)[C@H](C)/C=C(\C)[C@@H](O)[C@@H](OC)C(=O)[C@H](C)C[C@H](C)/C=C/C=C/C=C/1C` [temsirolimus], in the data set on cancers, the “mouth sores as side effect” value is “dose limiting toxicity” and the “results in human studies” value is “positive results”.
